Assay results from patent US20200061062A1, “INHIBITORS OF HUMAN PHOSPHATIDYLINOSITOL 3-KINASE DELTA” (ICOS Corporation, priority 2000, published 2020).
Where two headings read alike, the source gives them in different places.

Columns and labels:
PI3Kα [1] = target: T1, PI3Kα (Homo sapiens, UniProt P42336); assay: Biochemical assay of PI3K potency and selectivity using 20 μM ATP, Alpha; conditions: for Alpha/Delta Ratio / IC50: 20 μM ATP; for Alpha/Delta Ratio: ratio of IC50 values, > = hypothetical ratio with 100 μM substituted for the missing IC50; for IC50: read-out: Alpha IC50
T1 construct: His tag (pFastbac HTb vector) (N); FLAG; made in house; host or cells: Sf21 insect cells (baculovirus)
T1 sequence (P42336 whole entry): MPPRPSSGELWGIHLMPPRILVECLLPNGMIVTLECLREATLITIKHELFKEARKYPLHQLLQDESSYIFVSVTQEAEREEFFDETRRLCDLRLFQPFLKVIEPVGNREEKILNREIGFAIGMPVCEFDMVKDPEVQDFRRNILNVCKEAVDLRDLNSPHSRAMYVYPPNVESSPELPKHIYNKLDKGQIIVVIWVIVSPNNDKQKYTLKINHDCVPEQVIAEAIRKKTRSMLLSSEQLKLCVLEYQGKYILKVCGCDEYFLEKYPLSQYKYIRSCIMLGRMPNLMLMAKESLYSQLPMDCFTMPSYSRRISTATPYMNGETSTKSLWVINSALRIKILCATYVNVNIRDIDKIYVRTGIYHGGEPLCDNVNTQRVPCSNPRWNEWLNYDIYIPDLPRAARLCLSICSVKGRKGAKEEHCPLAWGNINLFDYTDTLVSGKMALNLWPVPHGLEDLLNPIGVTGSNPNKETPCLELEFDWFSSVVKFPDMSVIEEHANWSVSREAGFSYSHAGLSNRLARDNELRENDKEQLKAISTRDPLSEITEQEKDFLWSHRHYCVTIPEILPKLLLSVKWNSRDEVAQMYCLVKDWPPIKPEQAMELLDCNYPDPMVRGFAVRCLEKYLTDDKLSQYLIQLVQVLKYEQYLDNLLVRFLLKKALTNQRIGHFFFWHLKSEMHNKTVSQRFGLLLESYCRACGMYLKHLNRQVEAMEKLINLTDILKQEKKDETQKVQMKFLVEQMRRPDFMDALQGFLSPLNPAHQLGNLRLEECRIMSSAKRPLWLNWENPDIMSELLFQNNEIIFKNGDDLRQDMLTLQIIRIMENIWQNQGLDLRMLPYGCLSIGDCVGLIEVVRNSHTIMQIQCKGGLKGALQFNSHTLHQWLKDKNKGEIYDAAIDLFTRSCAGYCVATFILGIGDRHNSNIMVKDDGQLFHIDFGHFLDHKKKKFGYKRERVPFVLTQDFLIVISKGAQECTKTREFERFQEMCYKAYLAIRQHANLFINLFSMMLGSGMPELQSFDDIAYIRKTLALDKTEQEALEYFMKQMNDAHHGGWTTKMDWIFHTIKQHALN
T1 sequence (P27986 whole entry partner): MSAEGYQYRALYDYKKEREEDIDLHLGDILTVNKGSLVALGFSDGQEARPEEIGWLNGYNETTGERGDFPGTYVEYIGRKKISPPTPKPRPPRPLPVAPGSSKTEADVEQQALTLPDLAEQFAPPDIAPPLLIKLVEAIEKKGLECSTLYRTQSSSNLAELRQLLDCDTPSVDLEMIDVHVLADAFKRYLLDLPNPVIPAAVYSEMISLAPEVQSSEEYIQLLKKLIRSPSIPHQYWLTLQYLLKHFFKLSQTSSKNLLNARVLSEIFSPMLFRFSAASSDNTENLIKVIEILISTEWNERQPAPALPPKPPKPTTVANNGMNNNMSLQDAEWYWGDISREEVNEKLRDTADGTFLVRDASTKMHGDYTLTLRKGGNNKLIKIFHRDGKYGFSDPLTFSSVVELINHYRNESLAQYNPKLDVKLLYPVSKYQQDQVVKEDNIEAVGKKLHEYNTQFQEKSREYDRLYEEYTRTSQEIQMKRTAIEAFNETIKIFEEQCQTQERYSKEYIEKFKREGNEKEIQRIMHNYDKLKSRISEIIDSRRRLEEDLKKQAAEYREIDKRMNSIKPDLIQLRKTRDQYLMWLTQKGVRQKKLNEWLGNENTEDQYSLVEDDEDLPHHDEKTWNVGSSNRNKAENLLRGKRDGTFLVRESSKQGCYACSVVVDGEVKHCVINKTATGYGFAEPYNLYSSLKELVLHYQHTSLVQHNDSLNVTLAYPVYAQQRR
Excerpt: (§1) Recombinant PI3K heterodimeric complexes consisting of a p110 catalytic subunit and a p85 regulatory subunit were overexpressed using the BAC-TO-BAC® HT baculovirus expression system (GIBCO/BRL), and then purified for use in biochemical assays. The four Class I PI 3-kinases were cloned into baculovirus vectors as follows: […]

PI3Kβ [2] = target: T2, PI3Kβ (Homo sapiens, UniProt P42338); assay: Biochemical assay of PI3K potency and selectivity using 20 μM ATP, Beta; conditions: 20 μM ATP; for Beta/Delta Ratio: ratio of IC50 values, > = hypothetical ratio with 100 μM substituted for the missing IC50; for remaining activity at 100 µM: read-out: Beta: percent activity remaining at 100 μM, 100 μM compound did not inhibit by at least 50%; for IC50: read-out: Beta IC50
T2 construct: His tag (pFastbac HTa vector) (N); FLAG (N); made in house; host or cells: Sf21 insect cells (baculovirus)
T2 sequence (P42338 whole entry): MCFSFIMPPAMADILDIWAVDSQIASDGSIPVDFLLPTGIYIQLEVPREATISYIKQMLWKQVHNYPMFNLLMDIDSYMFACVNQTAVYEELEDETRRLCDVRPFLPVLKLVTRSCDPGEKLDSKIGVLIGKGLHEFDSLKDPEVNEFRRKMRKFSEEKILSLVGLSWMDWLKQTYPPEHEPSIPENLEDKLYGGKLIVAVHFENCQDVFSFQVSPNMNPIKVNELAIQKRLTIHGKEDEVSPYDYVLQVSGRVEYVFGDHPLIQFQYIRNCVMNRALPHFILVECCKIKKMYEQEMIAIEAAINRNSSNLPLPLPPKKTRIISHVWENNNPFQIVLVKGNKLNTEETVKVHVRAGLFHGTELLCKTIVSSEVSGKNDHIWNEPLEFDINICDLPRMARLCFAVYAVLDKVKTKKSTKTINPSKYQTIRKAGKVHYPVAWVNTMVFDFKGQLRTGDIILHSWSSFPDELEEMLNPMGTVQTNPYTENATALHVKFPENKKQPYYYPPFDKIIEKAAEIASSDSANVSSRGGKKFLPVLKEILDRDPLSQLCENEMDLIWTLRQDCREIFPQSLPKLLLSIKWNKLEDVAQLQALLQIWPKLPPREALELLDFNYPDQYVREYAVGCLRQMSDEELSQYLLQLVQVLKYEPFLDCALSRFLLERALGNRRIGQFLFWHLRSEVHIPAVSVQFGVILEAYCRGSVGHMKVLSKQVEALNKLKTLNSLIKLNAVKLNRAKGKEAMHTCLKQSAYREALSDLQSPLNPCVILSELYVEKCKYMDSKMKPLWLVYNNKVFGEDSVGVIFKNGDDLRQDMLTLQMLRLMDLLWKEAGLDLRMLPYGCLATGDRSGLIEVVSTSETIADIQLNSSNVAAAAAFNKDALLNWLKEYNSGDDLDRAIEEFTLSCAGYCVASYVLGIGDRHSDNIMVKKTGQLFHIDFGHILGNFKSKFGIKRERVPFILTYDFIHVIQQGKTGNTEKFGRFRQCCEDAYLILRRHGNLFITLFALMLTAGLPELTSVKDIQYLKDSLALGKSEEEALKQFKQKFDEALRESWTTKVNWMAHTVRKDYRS
T2 sequence (P27986 whole entry partner): as the sequence (P27986 whole entry partner) above
Description: Recombinant PI3K heterodimeric complexes consisting of a p110 catalytic subunit and a p85 regulatory subunit were overexpressed using the BAC-TO-BAC® HT baculovirus expression system (GIBCO/BRL), and then purified for use in biochemical assays. The four Class I PI 3-kinases were cloned into baculovirus vectors as follows:
The 3× substrate for the HTS contained 0.6 mM Na2ATP, 0.10 mCi/mL γ-[^32P]ATP (NEN, Pittsburgh, Pa.), 6 μM PIP2/PS liposomes (Avanti Polar Lipids, Inc., […].), in 20 mM HEPES, pH 7.4.

PI3Kγ [3] = target: T3, PI3Kγ (Homo sapiens, UniProt P48736); assay: Biochemical assay of PI3K potency and selectivity using 20 μM ATP, Gamma; conditions: for Gamma/Delta Ratio: ratio of IC50 values
T3 construct: His tag (pFastbac HTb vector) (N); FLAG (N); made in house; host or cells: Sf21 insect cells (baculovirus)
T3 sequence (P48736 whole entry): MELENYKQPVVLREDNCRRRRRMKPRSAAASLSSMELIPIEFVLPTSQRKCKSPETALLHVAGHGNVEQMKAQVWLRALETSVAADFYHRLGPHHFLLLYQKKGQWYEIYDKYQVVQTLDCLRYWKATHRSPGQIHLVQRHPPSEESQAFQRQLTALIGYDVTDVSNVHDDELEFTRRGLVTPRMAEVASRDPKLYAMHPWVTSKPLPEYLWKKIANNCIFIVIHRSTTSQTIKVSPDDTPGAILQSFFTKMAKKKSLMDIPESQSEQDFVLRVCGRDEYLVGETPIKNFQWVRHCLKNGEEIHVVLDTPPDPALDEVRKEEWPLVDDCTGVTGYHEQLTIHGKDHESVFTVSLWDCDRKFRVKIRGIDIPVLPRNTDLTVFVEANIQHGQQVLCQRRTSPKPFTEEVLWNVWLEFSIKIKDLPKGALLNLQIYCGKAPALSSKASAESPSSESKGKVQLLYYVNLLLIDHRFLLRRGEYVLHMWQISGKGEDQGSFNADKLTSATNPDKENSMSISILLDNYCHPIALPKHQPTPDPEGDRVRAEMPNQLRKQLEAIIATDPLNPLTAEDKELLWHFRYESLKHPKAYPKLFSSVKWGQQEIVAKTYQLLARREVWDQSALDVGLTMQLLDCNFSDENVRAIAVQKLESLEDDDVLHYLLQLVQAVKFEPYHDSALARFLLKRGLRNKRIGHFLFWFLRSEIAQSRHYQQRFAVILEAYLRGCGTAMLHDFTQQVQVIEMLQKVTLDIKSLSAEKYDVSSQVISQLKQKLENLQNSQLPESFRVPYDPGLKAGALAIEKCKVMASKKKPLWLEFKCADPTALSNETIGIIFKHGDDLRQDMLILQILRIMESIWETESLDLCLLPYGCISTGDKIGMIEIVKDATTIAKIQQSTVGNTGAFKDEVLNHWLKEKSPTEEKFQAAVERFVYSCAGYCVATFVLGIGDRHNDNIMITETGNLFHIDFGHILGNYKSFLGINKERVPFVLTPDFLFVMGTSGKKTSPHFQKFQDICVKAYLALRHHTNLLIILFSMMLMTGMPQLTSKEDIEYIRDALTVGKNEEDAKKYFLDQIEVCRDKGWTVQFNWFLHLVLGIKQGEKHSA
Excerpt: Recombinant baculoviruses containing the above clones were generated using manufacturer's recommended protocol (Life Technologies). Baculoviruses expressing His-tagged p110α, p110γ, or p110δ catalytic subunit and p85 subunit were coinfected into Sf21 insect cells. To enrich the heterodimeric enzyme complex, an excess amount of baculovirus expressing p85 subunit was infected, and the His-tagged p110 catalytic subunit complexed with p85 was purified on nickel affinity column. […] In an alternate approach, p101 can be cloned into baculovirus, to permit coexpression with its preferred binding partner p110γ. […]

PI3Kα [4] = target: T1, PI3Kα; assay: Biochemical assay using 200 μM ATP, Alpha
PI3Kβ [5] = target: T2, PI3Kβ; assay: Biochemical assay using 200 μM ATP, Beta
Description: PI3Kδ catalyzes a phosphotransfer from γ-[^32P]ATP to PIP2/PS liposomes at the D3′ position of the PIP2 lipid inositol ring. This reaction is MgCl2 dependent and is quenched in high molarity potassium phosphate buffer pH 8.0 containing 30 mM EDTA. […] The reaction products (and all unlabelled products) are transferred to a 96-well, prewetted PVDF filter plate, filtered, and washed in high molarity potassium phosphate. Scintillant is added to the dried wells and the incorporated radioactivity is quantitated.
This dilution established a final concentration of 200 μM ATP in the reaction volume. The reaction was stopped with 150 μL quench buffer (1.0 M potassium phosphate pH 8.0, 30 mM EDTA). A portion of the quenched solution (180 μL) was then transferred to a PVDF filter plate (Millipore # MAIP NOB prewetted with sequential 200 μL washes of 100% methanol, water, and finally 1.0 M potassium phosphate pH 8.0 wash buffer).
The PVDF filter plate was aspirated under moderate vacuum (2-5 mm Hg), washed with 5×200 μL of wash buffer, and then dried by aspiration. The filter was subsequently blotted, allowed to air dry completely, and inserted into a Wallac counting cassette with 50 μL of Ecoscint scintillation cocktail added per well.
Subsequent selectivity assays were done similarly using the same 3× substrate stocks except they contained 0.05 mCi/mL γ[^32P]ATP and 3 mM PIP2. Subsequent selectivity assays also used the same 3× enzyme stocks, except they now contained 3 nM of any given PI3K isoform.
For all selectivity assays, the test compounds were weighed out and dissolved into 10-50 mM stocks in 100% DMSO (depending on their respective solubilities) and stored at −20° C. […] From these dilutions, 20 μL was added into the assay wells alongside water blanks used for the enzyme (positive) control and the no enzyme (background) control.
This selectivity protocol is identical to that described above, except the 3× stock ATP concentration was 600 μM.

PI3Kγ [6] = target: T3, PI3Kγ; assay: Biochemical assay using 200 μM ATP, Gamma
human neutrophils = assay: Elastase exocytosis from neutrophils (fMLP-induced); type: cell-based; conditions: neutrophil (PMN) elastase release
Description: Aliquots (8 mL) of heparinized blood from healthy volunteers were layered on 3 mL cushions of 7.3% FICOLL® (Sigma, St. Louis, Mo.) and 15.4% HYPAQUE® (Sigma) and centrifuged at 900 rpm for 30 min at room temperature in a table top centrifuge (Beckman). The neutrophil-rich band just above the FICOLL®-HYPAQUE® cushion was collected and washed with Hanks' balanced salt solution (HBSS) containing 0.1% gelatin. Residual erythrocytes were removed by hypotonic lysis with 0.2% NaCl. The neutrophil preparation was washed twice with HBSS containing 0.1% gelatin and used immediately.
In addition to superoxide generation, activated neutrophils also respond by releasing several proteases that are responsible for the destruction of tissues and cartilage during inflammation. As an indication of protease release, the effect of D-000 on elastase exocytosis was measured. Elastase exocytosis was quantitated by modification of the procedure described by Ossanna et al. (J Clin Invest, 77:1939-1951 (1986)), as follows. Purified human neutrophils (0.2×10^6) (treated with either DMSO or a serial dilution of D-000 in DMSO) were stimulated with fMLP in PBS containing 0.01 mg/mL cytochalasin B, 1.0 μM sodium azide (NaN3), 5 μg/mL L-methionine and 1 μM fMLP for 90 min at 37° C. in a 96-well plate. At the end of the incubation period, the plate was centrifuged for 5 min at 1000 rpm, and 90 μL of the supernatant was transferred to 10 μL of 10 mM solution of an elastase substrate peptide, MeO-suc-Ala-Ala-Pro-Val-pNA, wherein MeO-suc=methoxy-succinyl; pNA=p-nitroanilide (Calbiochem, San Diego, Calif.). Absorbance at 410 nm was monitored for 2 hr in a 96-well plate reader. To measure the relative amounts of elastase excytosed, all absorbance values were normalized to the values without any inhibitor. […] Inhibition was half-maximal at a concentration of about 2-3 μM D-000.
(§2) Using the methods described in Examples 3-5, above, compounds of the invention were tested for inhibitory activity and potency in assays of stimulated B and T cell proliferation, neutrophil (PMN) migration, and neutrophil (PMN) elastase release. In Table 4, the values shown are effective concentrations of the compound (EC50; μM). Where no value is given, no assay was performed.

[7] = tested on: Murine splenocytes (Balb/c); assay: B cell proliferation in response to cell surface IgM stimulation; type: cell-based; conditions: Mus musculus, Splenocyte; stimulated B cell proliferation; read-out: Mouse BCR Stim (EC50)
Description: In the above experiment, the B cells were stimulated using PANSORBIN®. The effect of D-000 on B cell proliferation response when they were stimulated through their cell surface IgM using anti-IgM antibody also was measured. Murine splenocytes (Balb/c) were plated into 96-well microtiter plates at 2×10^5 cells per well in 10% FBS/RPMI. Appropriate dilutions of test inhibitor in complete medium were added to the cells and the plates were incubated for 30-60 minutes prior to the addition of stimulus. Following the preincubation with test inhibitor an F(ab′)2 preparation of goat antibody specific for the μ-chain of mouse IgM was added to the wells at a final concentration of 25 μg/mL. The plates were incubated at 37° C. for 3 days and 1 μCi of [^3H]-thymidine was added to each well for the final four hours of culture. The plates were harvested onto fiber filters washed and the incorporation of radiolabel was determined using a beta counter (Matrix 96, Packard Instrument Co., Downers Grove, Ill.) and expressed as counts per minute (CPM).
as §2

PI3Kδ [8] = target: T4, PI3Kδ (Homo sapiens, UniProt O00329, S253N); assay: Biochemical assay using 200 μM ATP, Delta;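 also: radiometric filter-binding assay: PI3Kδ transfers ³²P from γ-[³²P]ATP onto PIP2/PS liposomes, counted by scintillation, enzyme-only wells as positive control, no-enzyme wells as background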
T4 sequence (O00329 whole entry S253N): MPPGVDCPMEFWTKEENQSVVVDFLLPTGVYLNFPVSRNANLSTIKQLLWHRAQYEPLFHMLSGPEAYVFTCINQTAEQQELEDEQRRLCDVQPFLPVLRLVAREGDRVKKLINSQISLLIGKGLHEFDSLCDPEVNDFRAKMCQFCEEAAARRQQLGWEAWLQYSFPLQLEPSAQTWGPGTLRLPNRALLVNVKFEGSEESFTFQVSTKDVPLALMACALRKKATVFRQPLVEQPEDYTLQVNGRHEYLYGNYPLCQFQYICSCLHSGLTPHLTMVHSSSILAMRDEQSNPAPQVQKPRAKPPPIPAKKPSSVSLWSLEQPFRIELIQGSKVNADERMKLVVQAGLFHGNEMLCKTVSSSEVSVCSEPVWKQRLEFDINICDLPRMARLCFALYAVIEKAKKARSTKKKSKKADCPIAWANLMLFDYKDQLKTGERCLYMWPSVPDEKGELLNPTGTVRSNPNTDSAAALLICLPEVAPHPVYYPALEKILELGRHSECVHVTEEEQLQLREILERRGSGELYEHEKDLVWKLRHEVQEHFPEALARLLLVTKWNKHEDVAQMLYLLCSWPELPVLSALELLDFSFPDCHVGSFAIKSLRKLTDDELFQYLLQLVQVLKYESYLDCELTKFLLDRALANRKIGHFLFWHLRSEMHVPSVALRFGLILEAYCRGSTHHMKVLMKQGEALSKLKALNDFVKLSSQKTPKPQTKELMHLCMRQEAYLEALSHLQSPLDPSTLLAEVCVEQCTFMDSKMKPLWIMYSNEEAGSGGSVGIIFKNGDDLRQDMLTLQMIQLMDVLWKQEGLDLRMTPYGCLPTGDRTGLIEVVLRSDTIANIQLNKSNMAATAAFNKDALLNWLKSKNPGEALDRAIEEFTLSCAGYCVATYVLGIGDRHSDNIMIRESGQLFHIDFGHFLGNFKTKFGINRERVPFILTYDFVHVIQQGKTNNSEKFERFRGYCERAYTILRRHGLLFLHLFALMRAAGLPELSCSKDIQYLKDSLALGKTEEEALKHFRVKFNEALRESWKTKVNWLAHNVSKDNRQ
T4 sequence (P27986 whole entry partner): as the sequence (P27986 whole entry partner) above

PI3Kδ [9] = target: T4, PI3Kδ; assay: Biochemical assay of PI3K potency and selectivity using 20 μM ATP, Delta; set-up: His tag (pFastbac HTb vector) (N); FLAG; made in house; host or cells: Sf21 insect cells (baculovirus); conditions: 20 μM ATP; read-out: Delta IC50
Excerpt: as §1

T cell proliferation = assay: Stimulated T cell proliferation (Mouse TCE Stim, Table 4); type: cell-based; conditions: stimulated T cell proliferation, read-out: Mouse TCE Stim (EC50)
[10] = read-out: percent activity remaining at 100 μM, 20 μM ATP, 100 μM compound did not inhibit by at least 50%

remaining activity at 100 µM (PI3Kα [1]; [10])	SMILES	Alpha/Delta Ratio (PI3Kα [1])	remaining activity at 100 µM (PI3Kα [1]; read-out: percent activity remaining at 100 μM)	Beta/Delta Ratio (PI3Kβ [2])	remaining activity at 100 µM (PI3Kβ [2])	IC50 (PI3Kγ [3])	Gamma/Delta Ratio (PI3Kγ [3])	Alpha/Delta Ratio (PI3Kα [4])	Beta/Delta Ratio (PI3Kβ [5])	Gamma/Delta Ratio (PI3Kγ [6])	EC50 (human neutrophils)	EC50 [7]	IC50 (PI3Kδ [8])	IC50 (PI3Kδ [9])	IC50 (PI3Kα [1])	IC50 (PI3Kβ [2])	IC50 (PI3Kβ [5])	IC50 (PI3Kγ [6])	melting point	EC50 (T cell proliferation)
	CC(=O)O.O=c1c2ccccc2nc(CSc2ncnc3[nH]cnc23)n1N1CCOCC1 [Compound D-039, 3-morpholin-4-yl-2-(9H-purin-6-ylsulfanylmethyl)-3H-quinazolin-4-one, acetate salt]	>111	77%	>111	66%	38 µM	42	65	50	44	5 µM	0.9 ± 0.1 µM	2.6 µM	0.9 µM						
	COc1ccccc1-n1c(CSc2ncnc3[nH]cnc23)nc2cccc(C)c2c1=O [Compound D-047, 3-(2-methoxyphenyl)-5-methyl-2-(9H-purin-6-ylsulfanylmethyl)-3H-quinazolin-4-one]	333		100		0.5 µM	5.6	810	150	23	0.5 ± 0.2 µM	0.3 µM	0.2 µM	0.09 µM	30 µM	9 µM	30 µM	4.5 µM		
83%	O=c1c2c(F)cccc2nc(CSc2ncnc3[nH]cnc23)n1Cc1ccccc1 [Compound D-043, 3-benzyl-5-fluoro-2-(9H-purin-6-ylsulfanylmethyl)-3H-quinazolin-4-one]	>47		>47	77%							1.4 µM		2.1 µM						2.6 µM
	Cc1ccccc1-n1c(CSc2ncnc3[nH]cnc23)nc2cccc(Cl)c2c1=O [Compound D-010, 5-Chloro-2-(9H-purin-6-ylsulfanylmethyl)-3-o-tolyl-3H-quinazolin-4-one]	800		183		0.7 µM	12	658	144	27	0.3 ± 0.3 µM	0.2 ± 0.1 µM	0.23 ± 0.2 µM	0.06 µM	48 µM	11 µM	33 ± 4 µM	6 ± 3 µM	213.9 °C	
110%	Nc1ncnc2c1ncn2Cc1nc2cccc(F)c2c(=O)n1Cc1ccccc1 [Compound D-049, 2-(6-aminopurin-9-ylmethyl)-3-benzyl-5-fluoro-3H-quinazolin-4-one]	>100		30							5 µM	2 µM		1 µM		30 µM				6.3 µM
	Nc1ncnc2c1ncn2Cc1nc2cc(F)ccc2c(=O)n1-c1ccccc1Cl [Compound D-003, 2-(6-Aminopurin-o-ylmethyl)-3-(2-chlorophenyl)-7-fluoro-3N-quinazolin-4-one]	22		>24	53%							3.9 µM		4 µM	92 µM				216.8 to 217.2 °C	5.7 µM
	O=c1c2cccc(Cl)c2nc(CSc2ncnc3[nH]cnc23)n1-c1ccccc1Cl [Compound D-021, 8-Chloro-3-(2-chlorophenyl)-2-(9H-purin-6-ylsulfanylmethyl)-3H-quinazolin-4-one]	62		68								1.8 µM		1.6 µM	100 µM	110 µM			211.9 to 212.7 °C	3.5 µM
71%	O=c1c2c(Cl)cccc2nc(CSc2ncnc3[nH]cnc23)n1-c1ccccc1-c1ccccc1 [Compound D-013, 3-Biphenyl-2-yl-5-chloro-2-(9H-purin-6-ylsulfanylmethyl)-3H-quinazolin-4-one]	>2,000		260		2.1 µM	42	461	289	24		1.4 µM	0.51 ± 0.6 µM	0.05 µM		13 µM		12 ± 1 µM	222 to 222.5 °C (dec.)	

SMILES	remaining activity at 100 µM (PI3Kα [1]; [10])	Alpha/Delta Ratio (PI3Kα [1])	remaining activity at 100 µM (PI3Kα [1]; read-out: percent activity remaining at 100 μM)	Beta/Delta Ratio (PI3Kβ [2])	remaining activity at 100 µM (PI3Kβ [2])	IC50 (PI3Kγ [3])	Gamma/Delta Ratio (PI3Kγ [3])	Alpha/Delta Ratio (PI3Kα [4])	Beta/Delta Ratio (PI3Kβ [5])	Gamma/Delta Ratio (PI3Kγ [6])	EC50 (human neutrophils)	EC50 [7]	IC50 (PI3Kδ [8])	IC50 (PI3Kδ [9])	IC50 (PI3Kα [1])	IC50 (PI3Kβ [2])	IC50 (PI3Kβ [5])	IC50 (PI3Kγ [6])	melting point	EC50 (T cell proliferation)
O=c1c2c(Cl)cccc2nc(CSc2ncnc3[nH]cnc23)n1-c1ccccc1F [Compound D-011, 5-Chloro-3-(2-fluorophenyl)-2-(9H-purin-6-ylsulfanylmethyl)-3H-quinazolin-4-one]	72%	>1,000		550		1 µM	10	700	420	244	0.9 ± 0.7 µM	0.3 ± 0.1 µM	0.25 ± 0.2 µM	0.1 µM		55 µM	105 ± 35 µM	61 ± 70 µM	244 °C	
